Patent US8980914B2, “Therapeutic agent for chronic obstructive pulmonary disease and method for treatment for chronic obstructive pulmonary disease with the same” (Mariposa Health Limited, priority 2003, dated 2015)

Legend:
[1] = Peroxynitrite scavenging activity (oxidation of dihydrorhodamine 123); format: biochemical; conditions: oxidation of dihydrorhodamine 123 by peroxynitrite, phosphate buffer pH 7.4; read-out: 50% Inhibitory concentration on oxidation (IC50)
Method: This test was performed by estimating the antioxidative effect of the test substance using peroxynitrite quantitative method as a test system with dihydrorhodamine 123 so as to confirm the ability of the 7-aminoquinolinone derivatives of the present invention to scavenge peroxynitrite. This is a method described in NITRIC OXIDE: Biology and Chemistry Vol. 1, 145-157, 1997.
The test substance was weighted in an amount of approximately 10 mg, dissolved in a 10% Tween 80 solution and adjusted to 5×10^−3 mol/L. Then, the solution was diluted with 0.1 mol/L phosphate buffer (pH=7.4) to 5×10^−4 mol/L. The diluent was further diluted stepwise with a phosphate buffer containing 1% Tween 80 to obtain substance solution. The preparation was conducted before use. The final concentration of the test substance was adjusted to 3×10^−6, 1×10^−6, 3×10^−7, 1×10^−7, and 3×10^−8 mol/L, respectively.
To 20 μL of peroxynitrite solution (manufactured by DOJINDO LABORATORIES), 1980 μL of 0.1 mol/L sodium hydroxide was added and the mixture was diluted 100 times. The absorbance of the maximum absorption wavelength near 300 nm was measured using a UV-visible spectrophotometer and the concentration was calculated according to the following equation. Concentration(mmol/L)=(absorbance/1670)×100×1000
Based on the concentration calculated in the above section, dilution with a 0.1 mol/L sodium hydroxide solution was conducted and adjusted to 10 mmol/L. 990 μL of a 0.1 mol/L sodium hydroxide solution was taken into a 1.5 mL-Eppen tube. To the Eppen tube, 10 μL of a solution adjusted to 10 mmol/L was added to prepare a 100 μmol/L solution.
Dihydrorhodamine 123 was dissolved into 1.155 mL of dimethylsulfoxide, and adjusted to the concentration of 25 mmol/L. This solution was dispensed into 20 μL aliquots and then the aliquots were stored in a biomedical freezer (about −20° C.) and used as a stock solution.
To 490 μL of 0.02% Tween 80 containing 0.1 mol/L phosphate buffer, 10 μL of 25 mmol/L of a thawed dihydrorhodamine 123 stock solution was added to make 500 μmol/L. The prepared solution was diluted with 0.1 mol/L phosphate buffer (pH=7.4) 1000 times to prepare 500 nmol/L of a dihydrorhodamine 123 solution.
(1) To a 3.5 mL brown vial containing a stirring bar, 1470 μL of a 500 nmol/L dihydrorhodamine 123 solution and then 15 μL of the test substance solution was added. For the blank and control groups, 15 μL of 0.1 mol/L phosphate buffer containing 1% Tween 80, as a solvent for the test substance solution, was added. After the addition, the mixture was stirred with a stirrer for 30 minutes.
15 μL of a 100 μmol/L peroxynitrite solution was added while stirring. For the blank group, 15 μL of a 0.1 mol/L sodium hydroxide solution was added. After stirring for 15 minutes, fluorescence intensity was measured.
Fluorescence intensity of the reaction solution was measured using a spectrophotofluorometer under the following measuring conditions: excitation wavelength, 500 nm; emission wavelength, 536 nm; measuring times, one; response, 1 sec; photomultiplier tube voltage, Low; band width at excitation side, 10 nm; bandwidth at emission side, 10 nm.
The oxidation rate of dihydrorhodamine 123 when adding the test substance was calculated, taking the oxidation rate of dihydrorhodamine 123 for control as 100, according to the following equation: Oxidation rate (%) of dihydrorhodamine 123=(measured value for each group−measured value for blank)/(measured for control−measured value for blank)×100 Calculation of Oxidation Inhibition Concentration (IC50)
50% oxidation concentration, that is 50% oxidation inhibition concentration (IC50) was calculated by giving a straight line from two points surrounding 50% oxidation rate.

[2] = test system: airway hyper-responsiveness induced by ozone; assay: Airway hyper-responsiveness model induced by inhalation of ozone in guinea pigs (lung resistance after methacholine); format: in vivo; conditions: RLung after methacholine inhalation 5 hours after end of ozone exposure
Method: This test was performed so as to evaluate the pharmacological effect of the 7-aminoquinolinone derivatives of the present invention in an airway hyper-responsiveness model induced by inhalation of ozone in guinea pigs. The test procedure will now be described.
Guinea pigs were fasted for 18 hours or more. The animals were administered the test substance (30 mg/kg) and theophylline (100 mg/kg) one hour before ozone inhalation. For the non-stimulation group and the vehicle control group, vehicle (5 mL/kg) was administered similarly.
The animals were put into an acryl-made chamber (29×19×25 cm), subjected to induction of ozone generated by an ozonizer (EUV3-XU; EBARA JITSUGYO CO, LTD.) and exposed for 2 hours. The ozone concentration in the chamber was approximately 3 ppm. It was confirmed every 30 minutes that this concentration was maintained during exposure by an ozone monitor (EG-5000; EBARA JITSUGYO CO, LTD.) (measured value: 2.53 to 3.40 ppm). For the non-stimulation group, the animals were exposed to a mixed gas (oxygen: 95%, carbonic acid gas: 5%) similarly. The ozone concentration at that time was also confirmed similarly (acceptable concentration: 0.01 ppm or less, measured value: 0.00 to 0.01 ppm).
The measurement of airway hyper-responsiveness was performed 5 hours after the end of ozone exposure. The measurement of lung resistance (RLung) was performed according to the method of R. E. Giles et al. in the same manner as in Example 2. That is, the animals were anesthetized with Nembutal (Trade name: 50 mg/kg, i.p., sodium pentobarbital) and subjected to cannulation into esophagus and trachea. The esophagus and trachea cannulas were connected to a respirator (ventilation volume: 6 mL/kg, ventilation frequency: 60 times/min, SN-480-7) and the RLung after inhalation of methacholine (100 μg/mL, for 1.5 minutes) was measured by the respiratory function analyzer (PULMOS-II; M.I.P.S) through a flow sensor (connected to Validyle DF45F (for flow rate) and DP45P (for pressure)). The inhalation of methacholine was performed with an ultrasonic nebuliser (NE-U17; Omron Matsuzaka) connected to the respirator under artificial respiration.
Used RLung represents 10 breaths having a stable value in a range from 1 to 30 breaths after initiation of each measurement for both before inhalation and during methacholine inhalation. The average of the RLung was calculated. The extreme values in RLung that occurred when animal moved during the measurement were excluded from the calculations.
The percentage of increase of RLung was calculated by the following equation. Increase in lung resistance (%)=([RLung after inhalation of methacholine]−[RLung before administration])/[RLung before administration]×100

[3] = test system: airway hyper-responsiveness induced by peroxynitrite; assay: Airway hyper-responsiveness model induced by exposure of peroxynitrite in guinea pigs (lung resistance after histamine); format: in vivo; conditions: 30 mg/kg orally one hour before peroxynitrite, histamine 32 μg/kg i.v. on 5-day, control group 759, non-stimulation group 382
Method: This test was performed so as to investigate the pharmacological effect of the 7-aminoquinolinone derivative of the present invention on an airway hyper-responsiveness model induced by exposure of peroxynitrite in guinea pigs. The test procedure will now be described.
Guinea pigs were fasted for 18 hours or more. The animals were administrated the test substance (30 mg/kg) orally one hour before exposure of peroxynitrite and the neck was dissected under ether anesthesia, and then the trachea was exposed. 0.1 mL of 1 mmol/L peroxynitrite was administered intratracheally into pulmonary side by pushing with air and, after the administration, the incision was sutured and disinfected.
The measurement of airway hyper-responsiveness was performed on 5-day, taking the day of model preparation 0-day. Guinea pigs were fasted for 18 hours or more. The measurement of lung resistance; (RLung) was performed according to the method of R. E. Giles et al. (R. E. Giles, M. P. Finkel and J. Mazurowski: Use of an Analog On-Line Computer for the Evaluation of Pulmonary Resistance and Dynamic Compliance in the Anesthetized Dog. Arch. Int. Pharmacodyn. 194, 213-222 (1971)). That is, the animals were anesthetized with Nembutal (Trade name: 40 mg/kg, i.v., sodium pentobarbital) and subjected to cannulation into esophagus, trachea and jugular veins (for administration of histamine). The esophagus and trachea cannulas were connected to an artificial respirator (ventilation volume: 6 mL/kg, ventilation frequency: 60 times/min, SN-480-7) and the Rlung was measured after intravenous administration (dose of 0.1 mL/kg) of physiological saline solution and histamine (32 μg/kg) using a total plethysmograph system via flow sensor, connected to Validyne DF45F (for flow rate) and DP45P (for pressure). RLung before administration was determined by averaging values of any 3 out of 20 breaths, RLung after administration of physiological saline solution was determined by averaging values of any 3 out of 5 breaths, and RLung after administration of histamine was determined by averaging values of the following 3 breaths; 1) showing the maximum lung resistance, 2) taken just before and 3) taken just after the one with the maximum lung resistance, out less than 20 breaths. (The extreme values in RLung that occurred when animal moved during the measurement were excluded from the calculations.)
The percentage of increase in lung resistance was calculated by the following equation. Increase in lung resistance (%)=([RLung after administration of histamine]−[RLung before administration])/[RLung before administration]×100

[4] = test substance 30 mg/kg one hour before ozone inhalation

SMILES	IC50 [1] [nM]	Increase in lung resistance (%) [2, 4] [%]	Increase in lung resistance (%) [3] [%]	Increase in lung resistance (%) ([2]; theophylline 100 mg/kg one hour before ozone inhalation)
CCCCCCOc1c(O)c(=O)n(C)c2cc(NC(=O)C=Cc3cc(OC)c(O)c(OC)c3)ccc12 [Compound 556]	890	25	426	–
CCCCNc1ccc2c(OC)c(O)c(=O)n(CC)c2c1 [Compound 276]	820	30	430	–
COc1c(OC(C)=O)c(=O)n(C)c2cc(N)ccc12 [Compound 32]	960	32	435	–
CCNc1ccc2c(O)c(OC)c(=O)n(C)c2c1 [Compound 236]	880	28	428	–
CCCCCCNc1ccc2c(O)c(OC)c(=O)[nH]c2c1 [Compound 204]	890	37	439	–
COc1c(O)c(=O)n(C)c2cc(N)ccc12 [Compound 58]	810	27	423	–
COc1cc(C=CC(=O)Nc2ccc3c(O)c(OCC=C(C)CCC=C(C)C)c(=O)n(C)c3c2)cc(OC)c1O [Compound 553]	980	28	417	–
COc1cc(C=CC(=O)Nc2ccc3c(O)c(OC)c(=O)n(C)c3c2)cc(OC)c1O [Compound 546]	790	27	422	–
CCCCCCOc1c(O)c2ccc(NC(=O)C=Cc3cc(OC)c(O)c(OC)c3)cc2n(C)c1=O [Compound 549]	800	28	423	–
CCCCCCOc1c(O)c2ccc(NC(=O)C=Cc3ccc(O)c(OC)c3)cc2n(C)c1=O [Compound 581]	760	30	430	–
CCCCCCn1c(=O)c(OC)c(O)c2ccc(NCC)cc21 [Compound 330]	790	22	417	–
Cn1c(=O)c2[nH]cnc2n(C)c1=O [theophylline, reference compound]	–	–	–	26

More lines, main results first:

IC50 [1] [nM]	SMILES	Increase in lung resistance (%) [2, 4] [%]	Increase in lung resistance (%) [3] [%]	Increase in lung resistance (%) ([2]; theophylline 100 mg/kg one hour before ozone inhalation)
840	CCCCCCCCOc1c(O)c2ccc(N)cc2n(CC)c1=O [Compound 87]	29	432	–
940	CCCCCCOc1c(O)c2ccc(NC=O)cc2n(CCCC)c1=O [Compound 459]	26	427	–
840	CCCCOc1c(O)c2ccc(N(C)C)cc2n(CCCC)c1=O [Compound 303]	27	427	–
890	CCCCCCCCn1c(=O)c(OC)c(O)c2ccc(N)cc21 [Compound 173]	30	430	–
940	CCCCCCCCn1c(=O)c(O)c(OC)c2ccc(N)cc21 [Compound 181]	25	425	–
880	CCCCCCOc1c(O)c2ccc(N)cc2n(C)c1=O [Compound 53]	29	440	–
1010	CCCCCCOc1c(O)c(=O)n(C)c2cc(NC(C)=O)ccc12 [Compound 401]	25	420	–
1050	C=CCOc1c(O)c2ccc(N)cc2n(C)c1=O [Compound 56]	30	434	–
710	CCCCCCCCOc1c(O)c2ccc(NC(=O)C=Cc3cc(OC)c(O)c(OC)c3)cc2n(C)c1=O [Compound 551]	22	416	–
960	CCCCCCCCOc1c(O)c2ccc(N)cc2n(C)c1=O [Compound 55]	26	425	–
